The source of these data is ChEMBL document CHEMBL2331362, “Identification of N-acyl 4-(5-pyrimidine-2,4-dionyl)phenylalanine derivatives and their orally active prodrug esters as dual-acting alpha4-beta1 and alpha4-beta7 receptor antagonists” (Bioorg Med Chem Lett, 2013).

Series [1] in a line: Clearance in cynomolgus monkey at 10 mg/kg, iv. Format: ADME, organism-based, Macaca fascicularis. More on the design: dose 10 mg/kg, route intravenous. The conditions noted are these: in vivo.
Series [2] in a line: Mean residence time in rat at 10 mg/kg, iv. The format is ADME, organism-based. More on the design: dose 10 mg/kg, route intravenous. The conditions noted are these: in vivo.
Series [3] addresses T1, Integrin alpha-4/beta-1 (Homo sapiens, UniProt P05556+P13612). Kind of series: Inhibition of human VCAM1 binding to integrin alpha4beta1 receptor in human Ramos cells labeled with Calcein AM. The format is cell-based.
Series [4] can be described thus: Distribution coefficient, log D of the compound. Format: physicochemical. The conditions noted are these: octanol/water.
Series [5] in a line: Clearance in dog at 5 mg/kg, iv. Format: ADME, organism-based, Canis lupus familiaris. Details: dose 5 mg/kg, route intravenous. As to conditions: in vivo.
The nature of series [6]: Mean residence time in dog at 5 mg/kg, iv. The format is ADME, organism-based, Canis lupus familiaris. The conditions noted are these: in vivo. Details: dose 5 mg/kg, route intravenous.
Series [7] in a line: AUC (0 to 8 hrs) in dog at 5 mg/kg, iv. More on the design: time < 8 hr, dose 5 mg/kg, route intravenous. The conditions noted are these: plasma. Format: ADME, organism-based, Canis lupus familiaris.
The nature of series [8]: Clearance in rat at 10 mg/kg, iv. The format is ADME, organism-based. As to conditions: in vivo. More on the design: dose 10 mg/kg, route intravenous.
Series [9] can be described thus: AUC (0 to 8 hrs) in rat at 10 mg/kg, iv. The format is ADME, organism-based. More on the design: time < 8 hr, dose 10 mg/kg, route intravenous. As to conditions: plasma.
Series [10] is described as follows: Clearance in mouse at 10 mg/kg, iv. The format is ADME, organism-based. More on the design: dose 10 mg/kg, route intravenous. As to conditions: in vivo.
For series [11], the target named is Integrin alpha-4/beta-7 (Homo sapiens) (UniProt P13612+P26010). Kind of series: Inhibition of human MAdCAM1 binding to integrin alpha4beta7 receptor in human RPMI 8866 cells labeled with Calcein AM relative to (S)-2-(2-chloro-6-methylbenzamido)-3-(4-(2,6-dichlorobenzamido)phenyl)propanoic acid. Format: cell-based.
Series [12] is described as follows: Mean residence time in cynomolgus monkey at 10 mg/kg, iv. The format is ADME, organism-based, Macaca fascicularis. More on the design: dose 10 mg/kg, route intravenous. As to conditions: in vivo.
A short description of series [13]: AUC (0 to 8 hrs) in cynomolgus monkey at 10 mg/kg, iv. Format: ADME, organism-based, Macaca fascicularis. More on the design: time < 8 hr, dose 10 mg/kg, route intravenous. As to conditions: plasma.
Series [14] addresses T2, Integrin alpha-4/beta-7 (Homo sapiens, UniProt P13612+P26010).
T2 sequence (P13612 whole entry): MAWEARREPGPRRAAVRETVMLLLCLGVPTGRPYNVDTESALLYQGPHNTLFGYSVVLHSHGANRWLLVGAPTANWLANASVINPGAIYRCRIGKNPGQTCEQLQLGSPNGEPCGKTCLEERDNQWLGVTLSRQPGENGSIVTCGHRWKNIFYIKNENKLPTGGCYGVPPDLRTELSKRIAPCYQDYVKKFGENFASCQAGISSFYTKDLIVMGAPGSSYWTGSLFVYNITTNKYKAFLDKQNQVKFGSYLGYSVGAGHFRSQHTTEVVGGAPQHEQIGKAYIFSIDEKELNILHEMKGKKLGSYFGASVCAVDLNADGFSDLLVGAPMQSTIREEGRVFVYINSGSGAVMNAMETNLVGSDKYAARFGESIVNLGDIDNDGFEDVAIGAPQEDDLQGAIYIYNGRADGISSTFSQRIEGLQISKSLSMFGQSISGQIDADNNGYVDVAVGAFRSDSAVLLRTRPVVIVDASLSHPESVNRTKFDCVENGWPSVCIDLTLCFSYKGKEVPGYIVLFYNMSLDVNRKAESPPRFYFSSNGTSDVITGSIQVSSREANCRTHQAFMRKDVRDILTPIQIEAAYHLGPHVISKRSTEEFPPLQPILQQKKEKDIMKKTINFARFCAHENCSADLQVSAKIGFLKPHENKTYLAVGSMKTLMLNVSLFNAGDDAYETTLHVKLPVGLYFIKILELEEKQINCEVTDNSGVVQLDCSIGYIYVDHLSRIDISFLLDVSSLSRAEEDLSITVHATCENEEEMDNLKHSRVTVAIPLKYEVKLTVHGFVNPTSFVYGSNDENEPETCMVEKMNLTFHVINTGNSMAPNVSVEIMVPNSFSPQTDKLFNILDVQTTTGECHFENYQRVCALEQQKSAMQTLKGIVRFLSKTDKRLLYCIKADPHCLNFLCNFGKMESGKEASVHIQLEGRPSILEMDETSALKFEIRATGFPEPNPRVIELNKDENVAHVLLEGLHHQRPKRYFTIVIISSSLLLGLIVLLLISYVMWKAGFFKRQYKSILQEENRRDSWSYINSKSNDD
T2 sequence (P26010 whole entry): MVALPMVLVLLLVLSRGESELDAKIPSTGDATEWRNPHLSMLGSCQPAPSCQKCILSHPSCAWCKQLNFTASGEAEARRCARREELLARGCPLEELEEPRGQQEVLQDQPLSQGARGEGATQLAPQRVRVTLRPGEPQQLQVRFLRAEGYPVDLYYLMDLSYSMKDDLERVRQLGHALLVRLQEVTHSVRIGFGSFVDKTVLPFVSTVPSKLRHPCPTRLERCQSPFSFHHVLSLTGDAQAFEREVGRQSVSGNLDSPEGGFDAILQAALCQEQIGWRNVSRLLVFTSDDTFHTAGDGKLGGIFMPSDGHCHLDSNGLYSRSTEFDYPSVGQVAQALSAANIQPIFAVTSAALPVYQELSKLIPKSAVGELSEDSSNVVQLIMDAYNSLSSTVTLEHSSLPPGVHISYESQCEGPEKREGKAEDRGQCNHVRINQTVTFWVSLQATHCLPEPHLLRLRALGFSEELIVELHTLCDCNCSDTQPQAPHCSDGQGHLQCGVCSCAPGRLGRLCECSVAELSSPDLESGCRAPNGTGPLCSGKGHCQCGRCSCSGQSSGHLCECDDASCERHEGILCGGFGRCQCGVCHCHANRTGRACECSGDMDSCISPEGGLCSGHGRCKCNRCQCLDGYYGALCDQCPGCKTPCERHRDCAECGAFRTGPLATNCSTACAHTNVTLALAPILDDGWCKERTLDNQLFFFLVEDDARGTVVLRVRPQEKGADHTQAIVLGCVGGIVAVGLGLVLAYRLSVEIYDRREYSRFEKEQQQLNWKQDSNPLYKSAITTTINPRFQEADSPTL
Nature of the series: Inhibition of human MAdCAM1 binding to integrin alpha4beta7 receptor in human RPMI 8866 cells labeled with Calcein AM. The format is cell-based.

Series [15] can be described thus: AUC (0 to 8 hrs) in mouse at 10 mg/kg, iv. Details: time < 8 hr, dose 10 mg/kg, route intravenous. As to conditions: plasma. The format is ADME, organism-based.
Series [16] in a line: Apparent permeability across human Caco2 cells. The format is ADME, cell-based. The conditions noted are these: Caco-2. On the technique in general: Passage across Caco-2 layers is used to estimate intestinal permeability.
Series [17] can be described thus: Half life in dog at 5 mg/kg, iv. The format is ADME, organism-based, Canis lupus familiaris. More on the design: dose 5 mg/kg, route intravenous. As to conditions: in vivo.
Series [18] is described as follows: Mean residence time in mouse at 10 mg/kg, iv. Format: ADME, organism-based. More on the design: dose 10 mg/kg, route intravenous. As to conditions: in vivo.
The target of series [19] is T1, Integrin alpha-4/beta-1. Kind of series: Inhibition of human VCAM1 binding to integrin alpha4beta1 receptor in human Ramos cells labeled with Calcein AM relative to (S)-2-(2-chloro-6-methylbenzamido)-3-(4-(2,6-dichlorobenzamido)phenyl)propanoic acid. Format: cell-based.
A short description of series [20]: Half life in cynomolgus monkey at 10 mg/kg, iv. Format: ADME, organism-based, Macaca fascicularis. More on the design: dose 10 mg/kg, route intravenous. As to conditions: in vivo.

pIC50: −log10 of the molar value.

T1 sequence (P05556 whole entry, one chain of several): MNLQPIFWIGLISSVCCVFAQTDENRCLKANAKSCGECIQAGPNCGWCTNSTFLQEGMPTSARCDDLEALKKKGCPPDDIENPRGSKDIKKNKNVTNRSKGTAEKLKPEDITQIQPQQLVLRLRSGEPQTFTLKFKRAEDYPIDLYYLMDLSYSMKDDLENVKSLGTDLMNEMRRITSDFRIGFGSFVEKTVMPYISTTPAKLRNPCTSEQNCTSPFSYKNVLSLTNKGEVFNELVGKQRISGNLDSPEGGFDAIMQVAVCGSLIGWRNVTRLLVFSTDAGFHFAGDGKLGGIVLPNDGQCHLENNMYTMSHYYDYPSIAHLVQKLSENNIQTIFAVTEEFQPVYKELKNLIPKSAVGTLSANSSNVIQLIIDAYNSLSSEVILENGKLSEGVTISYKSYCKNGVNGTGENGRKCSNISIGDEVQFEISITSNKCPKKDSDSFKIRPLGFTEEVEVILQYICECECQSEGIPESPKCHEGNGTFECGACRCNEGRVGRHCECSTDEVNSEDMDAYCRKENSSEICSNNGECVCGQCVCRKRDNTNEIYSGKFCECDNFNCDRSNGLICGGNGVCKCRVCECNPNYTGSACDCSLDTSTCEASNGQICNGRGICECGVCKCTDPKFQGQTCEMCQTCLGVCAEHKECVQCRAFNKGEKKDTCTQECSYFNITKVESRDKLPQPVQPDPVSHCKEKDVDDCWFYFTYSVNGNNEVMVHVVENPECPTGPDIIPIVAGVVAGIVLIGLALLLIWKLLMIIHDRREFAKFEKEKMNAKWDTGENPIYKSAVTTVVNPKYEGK

For orientation: clearance means the volume of plasma or blood freed of the substance per unit of time. The MRT is the average time that molecules of a dose stay in the body. Usually pIC50 stands for the negative decadic logarithm of the IC50, by convention in mol/L. The logD is lipophilicity at a set pH, counting ionised and neutral species. By AUC(0-t) is commonly meant exposure summed from dosing to a finite time, without extrapolation to infinity. As usually defined, the Papp is the rate of passage across a membrane or cell layer, normalised by area and donor concentration. A word on the half-life: it is how long it takes for the measured level to halve. For `Cc1c(-c2ccc(C[C@H](NC(=O)c3c(F)cccc3F)C(=O)O)cc2)c(=O)n(C)c(=O)n1C`, the clearance in [1] is 6.88 mL/min/kg; in series [5] it was 29.7 mL/min/kg; in [8], 4.8 mL/min/kg; in series [10], 21 mL/min/kg. Besides, the MRT in [2] is 36.6 min; in series [6], 12.6 min; in series [12], 15 min; in series [18], 15.6 min. The negative logarithm of the IC50 (pIC50) in [3] was 7.74; in [14], 7.09. This compound also gave a logD in series [4] of -2.36. The AUC(0-t) at 8 h was determined as 2790 ng·h/mL in series [7], 41500 ng·h/mL in series [9], 22200 ng·h/mL in [13] and 7890 ng·h/mL in series [15]. Moreover, the results for the Ratio IC50 in series [11] and in series [19] were 3.3 and 3.2, respectively. Further, in series [16], the Papp came out at 0.77 ×10⁻⁶ cm/s. Also, the half-life in series [17] is 11.4 min; in series [20], 87.6 min.
